In brackets after ≈: the same amount, converted by molar mass.
Key:
Assay type in all cases: in vivo
[1] = system: 2nd-instar larvae of Chilo suppressalis (Walker); assay: whole plant or invertebrate; conditions: Chilo suppressalis; resistant 2nd-instar larvae, rice stalk spraying, 72 h; A = compound I-72, B = spinetoram; read-out: LC50
Description: In addition, a blank control was set up. The number of dead and live insects was investigated 72 hours later.

[2] = system: 3rd-instar larvae of Spodoptera frugiperda; assay: Joint toxicity of I-72 + spinosad, corn leaf dipping, Example 10, Table 10; conditions: Spodoptera frugiperda, foliar, 72 h, A = compound I-72, B = spinosad, read-out: LC50
Text: Test subject: 3rd-instar larvae of Spodoptera frugiperda, a sensitive strain reared indoors.
Experimental method: the dipping method was adopted. The corn leaves cultivated in the greenhouse were taken, cut into leaf segments of 5 cm long, dipped in the prepared pesticide solution for 10 s, and then cut into small pieces of 1.5 cm×1.5 cm after natural air-drying in the shade. These pieces were placed in a 24-well culture plate, and the standard test insects were introduced, with 48 insects for each treatment. The treated test insects were placed in an observation room under certain conditions. The reaction of the test insects was regularly observed, and the number of dead and live insects was investigated 72 h later.
The test conditions, the preparation of the pesticide solution and the evaluation method were the same as those in Example 1.

[3] = system: Pyrrhalta aenescens; assay: Joint toxicity of I-72 + fenobucarb, insect-dipping, Example 24, Table 24; conditions: A = compound I-72, B = fenobucarb, insect-dipping, 24 hours, read-out: LC50
Description: Test target: Pyrrhalta aenescens, a strain reared indoors.
Experimental method: the insect-dipping method was adopted. Pyrrhalta aenescens of the same size were selected, put into an insect-dipping cage, and evenly […] the pesticide solution in the order from low dosage to high dosage according to the experimental design, with dipping for 10 s for each treatment. They were placed in a 9-cm-diameter Petri dish with filter paper. After natural air-drying in the shade, feed was added, with 3 replicates for each treatment. In addition, a blank control was set up.
The treated test materials were placed in an observation room. The total number of test insects and the number of dead insects were investigated 24 hours later. The temperature, humidity and illumination of the observation room could be adjusted as needed. The test conditions, the preparation of the pesticide solution and the evaluation method were the same as those in Example 1.

[4] = system: adult Tetranychus cinnabarinus (Boisduval); assay: Joint toxicity of I-72 + spirodiclofen, potted-seedling spraying, Example 25, Table 25; conditions: Tetranychus cinnabarinus, A = compound I-72, B = spirodiclofen, 72 hours, read-out: LC50
Description: (§1) Test target: adult Tetranychus cinnabarinus (Boisduval), a sensitive strain reared indoors.
(§2) Preparation of the pesticide solution: according to different test requirements, the test samples were accurately weighed respectively with an electronic analytical balance. The technical pesticides were dissolved in acetone, and then diluted with 0.1% Tween 80 water into a series of pesticide solutions with a certain concentration gradient according to the experimental design dosage.
(§3) Experimental method: the activity of the mixture against the adult Tetranychus cinnabarinus (Boisduval) was determined by adopting the potted-seedling spraying method. First, the adult Tetranychus cinnabarinus of uniform size were transferred onto the leaves of kidney bean seedlings at the stage when the first pair of true leaves was fully expanded. After the adult mites had stabilized, the base number was counted. Then, the uniform spraying was performed with the pesticide solution in the order from low to high dose according to the experimental design, with 1.5 mL for each seedling and 3 replicates for each treatment. […]
(§4) The treated test materials were placed in an observation room, and the temperature, humidity and illumination of the observation room could be adjusted as needed. […] Then, the co-toxicity coefficient of each ratio was calculated using the Sun Y-P method to evaluate the mixing effect, as in Example 1.

[5] = system: second-instar larvae of Meloidogyne incognita; assay: In vitro joint toxicity of I-72 + fluopyram, 24-well plate, Example 32, Table 32; conditions: A = I-72, B = fluopyram, 24-well plate, 25° C., 48 hours, read-out: LC50
Description: Test target: second-instar larvae of Meloidogyne incognita, a sensitive strain reared in a greenhouse.
as §2
Experimental method: the prepared pesticide solutions were added to a 24-well plate in the order from low dosage to high dosage according to the experimental design. In each well of each treatment, 50 nematodes were placed. Each drug had 5 concentrations set, with 3 replicates. After the treatment, the 24-well plate was placed in a constant temperature incubator at 25° C. In addition, a blank control group was set up. The number of dead and live insects was investigated 48 hours later. […] Then, the co-toxicity coefficient of each ratio was calculated using the Sun Y-P method to evaluate the mixing effect (the same as in Example 1).

[6] = system: Myzus persicae (Sulzer) nymphs; assay: Joint toxicity of I-72 + fenvalerate, Example 46, Table 46; conditions: A = compound I-72, B = fenvalerate, cabbage leaf spraying, 48 hours, read-out: LC50
Description: (§5) Test target: Myzus persicae (Sulzer) nymphs, a sensitive strain reared indoors.
as §2
(§6) Experimental method: first, cabbage leaves with uniform and consistent Myzus persicae (Sulzer) were selected, with about 30-40 insects on each leaf. Then, they were evenly sprayed with the pesticide solution in the order from low dosage to high dosage according to the experimental design, with 1.5 mL of the solution for each leaf and 3 replicates for each treatment. In addition, a blank control was set up.
as §4, with “needed. The number of dead and live insects was investigated 48 hours later.” for “needed.”, “effect (the same” for “effect,”, “1).” for “1.”

[7] = system: Myzus persicae (Sulzer) nymphs; assay: Joint toxicity of I-72 + cyantraniliprole, Example 59, Table 59; conditions: A = compound I-72, B = cyantraniliprole, cabbage leaf spraying, 48 hours, read-out: LC50
Description: as §5, §2, §6
as §4, with “needed. The number of dead and live insects was investigated 48 hours later.” for “needed.”, “effect (the same” for “effect,”, “1).” for “1.”

[8] = system: Myzus persicae (Sulzer) nymphs; assay: Joint toxicity of I-72 + pymetrozine, Example 73, Table 73; conditions: A = compound I-72, B = pymetrozine, cabbage leaf spraying, 48 hours, read-out: LC50
Description: as §5, §2, §6
as §4, with “needed. The number of dead and live insects was investigated 48 hours later.” for “needed.”

[9] = system: adult Tetranychus cinnabarinus (Boisduval); assay: Joint toxicity of I-72 + pyridaben, Example 84, Table 84; conditions: A = compound I72, B = pyridaben, potted-seedling spraying, 72 hours, read-out: LC50
Description: as §1, §2, §3, §4

Work on `CN(C(=O)c1ccc2c(c1)OC(F)(F)O2)c1cccc(C(=O)Nc2c(Br)cc(C(F)(C(F)(F)F)C(F)(F)F)cc2OC(F)F)c1F` [Compound I-72] yielded an LC50 [1] of 0.811 µg/mL (≈ 1.09 µM), an LC50 [2] of 0.0777 µg/mL and an LC50 [3] of 1.33 µg/mL. It also gave an LC50 [4] of 35.1 µg/mL, an LC50 [5] of 249 µg/mL and an LC50 [6] of 8.2 µg/mL. It also gave an LC50 [7] of 8.14 µg/mL, an LC50 [8] of 7.96 µg/mL and an LC50 [9] of 33.5 µg/mL.

— patent publication US20260198495A1, “BINARY INSECTICIDE COMPOSITION AND USE THEREOF” (SHENYANG SINOCHEM AGROCHEMICALS R & D CO., LTD., priority 2022, published 2026)
